Assay results taken from patent publication US6617338B2, “Orally administrable acid stable antiulcer benzimidazole derivatives” (priority 2000, dated 2003).

Test system: pylorus ligated rats
Test: Pylorus ligated rats: total acid output and ulcer index
Type: in vivo, Wistar albino rats
Settings: 0.4 mg/kg × 1 day p.o., mean ± SEM
Source text: The distribution of animals in groups, the sequence of trials and the treatment allotted to each group were randomized. Gastric ulceration was produced by pylorus ligation and absolute ethanol administration. In these methods, animals were fasted for 36 hrs before the experiment. Coprohagy was prevented by fasting the animals in cages with grating as the floor. […] The animals were sacrificed using anaesthetic ether after the completion of experiments; the stomachs were removed, opened along the greater curvature, washed with saline and examined with 6.4* (cm diameter) binocular magnifier. Lesions were assessed by two observers unaware of the experimental protocol. […] They were administered per orally, 30 minutes after the drug treatment the animals were subjected to any ulcerogenic procedure. Rats were anesthetized with anaesthetic ether and the portion of abdomen was opened by a small midline incision below the xiphoid process. Pylorus portion of the stomach was lifted and ligated. […] The stomach was isolated from the body and its contents were collected, measured and centrifuged. […] Immediately after the removal of the contents from the stomach, they were examined for lesions in the stomach portion which were measured and expressed in terms of ulcer index calculated as the total ulcerated area divided by the total mucosal area.

**Q.** Which Total acid output (pylorus ligation 19 hours) does the source give for “5-methoxy-2[(4-methoxy-3,5-dimethyl-2-pyridinyl)sulfinyl]-1H-benzimidazole [Omeprazole]” here?
**A.** The Total acid output was 72.93 ± 7.17 meq/L/100 g.

**Q.** And the Ulcer index (total ulcerated area divided by total mucosal area)?
**A.** Its Ulcer index is 0.88 ± 0.10.
